According to patent publication US20240287042A1, “NOVEL COMPOUND HAVING INHIBITORY ACTIVITY AGAINST PENDRIN, AND PHARMACEUTICAL USES THEREOF” (UIF (University Industry Foundation), Yonsei University, priority 2021, published 2024):

How the values were obtained:
human WT ANO1 = biological target: T1, human WT ANO1 (Homo sapiens, UniProt Q5XXA6); assay: ANO1 I− transport activity, YFP fluorescence in FRT cells, ATP-activated; assay type: cell-based
T1 construct: expressed in transfected cells
T1 sequence (Q5XXA6 1-986): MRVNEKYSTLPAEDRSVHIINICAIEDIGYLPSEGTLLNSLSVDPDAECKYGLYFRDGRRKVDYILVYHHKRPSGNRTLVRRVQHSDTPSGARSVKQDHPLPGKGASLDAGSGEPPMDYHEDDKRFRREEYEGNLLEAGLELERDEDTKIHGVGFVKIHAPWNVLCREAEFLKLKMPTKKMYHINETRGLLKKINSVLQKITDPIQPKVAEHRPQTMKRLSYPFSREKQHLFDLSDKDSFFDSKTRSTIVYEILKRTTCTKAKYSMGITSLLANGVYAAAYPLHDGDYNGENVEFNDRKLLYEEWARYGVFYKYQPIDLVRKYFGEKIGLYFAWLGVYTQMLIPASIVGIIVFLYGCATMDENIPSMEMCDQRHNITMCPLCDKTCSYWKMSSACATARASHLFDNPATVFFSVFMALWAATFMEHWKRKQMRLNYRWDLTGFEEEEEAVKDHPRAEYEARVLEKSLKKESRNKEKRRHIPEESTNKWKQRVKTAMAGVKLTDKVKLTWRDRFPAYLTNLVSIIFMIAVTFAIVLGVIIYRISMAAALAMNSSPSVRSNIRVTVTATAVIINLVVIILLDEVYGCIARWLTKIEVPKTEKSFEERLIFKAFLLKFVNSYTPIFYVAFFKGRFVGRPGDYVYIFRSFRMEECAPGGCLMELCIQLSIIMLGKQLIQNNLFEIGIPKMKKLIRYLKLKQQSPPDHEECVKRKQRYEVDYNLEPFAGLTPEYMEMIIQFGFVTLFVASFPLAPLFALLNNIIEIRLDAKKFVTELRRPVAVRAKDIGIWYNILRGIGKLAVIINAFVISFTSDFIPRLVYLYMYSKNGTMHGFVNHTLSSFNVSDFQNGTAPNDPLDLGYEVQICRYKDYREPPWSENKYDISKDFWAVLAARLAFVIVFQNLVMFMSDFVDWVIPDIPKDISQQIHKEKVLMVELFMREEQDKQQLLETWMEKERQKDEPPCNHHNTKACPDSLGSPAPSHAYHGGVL
Method: Chinese hamster ovary (CHO)-K1 cells or LN-215 cells were cultured in DMEM medium containing 10% fetal bovine serum (FBS), 100 units/ml of penicillin and 100 μg/ml streptomycin. CHO-K1 cells or LN-215 cells were stably transfected with pcDNA3.1 encoding the halide sensor YFP-H148Q/I152L/F46L and human wild-type (WT)-SLC26A9. Fisher rat thyroid (FRT) cells stably transfected with YFP-H148Q/I152L/F46L and human wild type (WT)-CFTR or human wild type (WT)-ANO1 were cultured in DMEM/F-12 medium containing 10% fetal bovine serum (FBS), 100 units/ml of penicillin, and 100 μg/ml of streptomycin.
LN-215 cells expressing human WT SLC26A9 and YFP-F46L/H148Q/I152L, and FRT cells expressing human WT CFTR or ANO1 and YFP-F46L/H148Q/I152L were plated in 96-well microplates at a density of 2×10^4 cells per well, and cultured for 48 hours. […] After culturing at 37° C. for 10 minutes, the 96-well plate was located on the FLUOstar Omega Microplate Reader (BMG Labtech, Ortenberg, Germany) for a fluorescence assay. For assay of the activity of […], fluorescence was recorded continuously (400 ms per point) for 1 second (baseline), whereby each well was assayed individually for SLC26A9-mediated I-influx. Then, 50 μL of NaI-substituted HEPES buffered solution (replacing NaCl with NaI) was added using a liquid injector at 1 second, and YFP fluorescence was recorded for 6 seconds. […]

CHO-K1 cells = assay: Cell viability, MTS colorimetric assay; assay type: cell-based, Chinese hamster; settings: 24 hours; for Cytotoxicity: 30 μM; for Change in survival rate: 100 μM
Method: Chinese hamster ovary (CHO)-K1 cells were cultured in DMEM medium containing 10% fetal bovine serum (FBS), 100 units/ml of penicillin and 100 μg/ml streptomycin.
The cell viability was measured using the CellTiter 96® AQueous One Solution cell proliferation assay kit (Promega, Madison, WI, USA). CHO-K1 cells were cultured with medium supplemented with 10% FBS in 96-well plates for 24 hours, and then compounds or vehicle were treated in the medium, and after 24 hours, the medium was completely removed, and the MTS assay was performed as recommended in the supplier's protocol. The absorbance of Formazan was measured at a wavelength of 490 nm using an Infinite M200 microplate reader (Tecan, Austria).

Row | Structure (SMILES) | Effect on ANO1 activity (human WT ANO1; 30 μM) | Cytotoxicity (CHO-K1 cells) | Change in survival rate (CHO-K1 cells) | inhibition at 30 µM (human WT ANO1; FIG. 3) [%]
1 | Cc1ccc2[nH]c(C(=O)O)c(CC(=O)N3CCN(c4c(C)cccc4Cl)CC3)c2c1 [YPI-A4948, 3-(2-(4-(2-Chloro-6-methylphenyl)piperazin-1-yl)-2-oxoethyl)-5-methyl-1H-indole-2-carboxylic acid] | weakly inhibited | no cytotoxicity | around 10% | 
2 | Cc1ccc(C)c(N2CCN(C(=O)Cc3c(C(=O)O)[nH]c4ccc(Cl)cc34)CC2)c1 [YPI-H05, 5-chloro-3-(2-(4-(2,5-dimethylphenyl)piperazin-1-yl-)-2-oxoethyl)-1H-indole-2-carboxylic acid] |  | no cytotoxicity | around 10% | ~80
